Data published in patent US11530186B2, “Inhibitors for the β-catenin / T-cell factor protein-protein interaction” (H. LEE MOFFITT CANCER CENTER AND RESEARCH INSTITUTE, INC., priority 2018, dated 2022).
Like-named read-outs stand apart in the source and are kept apart here.

Target: T1, β-catenin/Tcf protein-protein interaction (Homo sapiens, UniProt P35222)
T1 construct: Wild-type β-catenin (residues 138-781) were cloned into a pET-28b vector; 6×histidine (C); made in house; host or cells: E. coli BL21 DE3
T1 sequence (P35222 138-781): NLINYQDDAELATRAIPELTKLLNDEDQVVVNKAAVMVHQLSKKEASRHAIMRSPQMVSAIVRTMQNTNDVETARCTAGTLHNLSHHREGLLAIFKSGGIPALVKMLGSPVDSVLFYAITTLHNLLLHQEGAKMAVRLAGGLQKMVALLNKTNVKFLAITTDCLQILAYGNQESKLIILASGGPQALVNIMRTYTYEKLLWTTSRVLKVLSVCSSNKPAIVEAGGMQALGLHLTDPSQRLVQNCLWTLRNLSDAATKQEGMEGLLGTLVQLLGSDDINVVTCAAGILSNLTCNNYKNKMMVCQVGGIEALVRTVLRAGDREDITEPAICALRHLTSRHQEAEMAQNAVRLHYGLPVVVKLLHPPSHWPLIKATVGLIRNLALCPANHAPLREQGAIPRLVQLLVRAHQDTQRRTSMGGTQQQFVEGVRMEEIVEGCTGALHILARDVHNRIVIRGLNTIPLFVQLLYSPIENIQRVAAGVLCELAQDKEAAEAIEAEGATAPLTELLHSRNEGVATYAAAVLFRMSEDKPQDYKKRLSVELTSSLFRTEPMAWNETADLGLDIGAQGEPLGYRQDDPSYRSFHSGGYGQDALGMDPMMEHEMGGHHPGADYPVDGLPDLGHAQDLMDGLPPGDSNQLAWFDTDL
Test: FP competitive inhibition assay
Type: binding
Experimental: Protein Expression and Purification. Wild-type β-catenin (residues 138-781) were cloned into a pET-28b vector carrying a C-terminal 6×histidine (Novagen) and transformed into E. coli BL21 DE3 (Novagen). Cells were cultured in LB medium with 30 μg/mL kanamycin until the OD600 was approximately 0.8, and then protein expression was induced with 400 μM of IPTG at 20° C. overnight. Cells were lysed by sonication. The proteins were purified by Ni-NTA affinity chromatography (30210, Qiagen) and dialyzed against a buffer containing 20 mM of Tris (pH 8.8), 100 mM NaCl, 10% glycerol, and 3 mM DTT. The purity of β-catenin was set to >95% as determined by SDS-PAGE gel analysis. Native non-denaturing gel electrophoresis experiment and the thermal-shift assay on an iCycler iQ Real Time Detection System (Bio-Rad) were performed for each purified protein. In the thermal shift assay, protein unfolding was evaluated through measuring the fluorescence changes of fluorescent dye Sypro Orange with purified β-catenin proteins. A temperature increment of 1° C./min was applied to monitor protein stability and detect protein aggregation. CD spectra were measured on a J-815 spectropolarimeter (Jasco). All spectra were recorded using a 1 mm path-length quartz cell. The CD spectra were averaged over three scans, and the wavelength was scanned from 260 to 190 nm in step of 1 nm. All spectra were recorded at room temperature, and the baseline was corrected by subtracting the CD spectra of a blank control containing all of the substances except protein. Samples were prepared at a concentration around 1-5 μM in a buffer of 10 mM potassium phosphate and 100 mM potassium fluoride at pH 7.0 to ensure that the transmission of light through the sample was not restricted. All proteins were stable, and no aggregation was observed under storage or assay conditions. Proteins were aliquoted and stored at −80° C. C-terminally fluorescein-labeled human Tcf4 (residues 7-51) was synthesized and HPLC purified with purity >95%. The structures were validated by LC/MS (liquid chromatography/mass spectrometry).
FP Assays. The procedures for the FP competitive inhibition assays have been described previously (Zhang, M.; Huang, Z.; Yu, B.; Ji, H. New homogeneous high-throughput assays for inhibitors of β-catenin/Tcf protein-protein interactions Anal. Biochem. 2012, 424, 57-63; Zhang, M.; Catrow, J. L.; Ji, H. High-throughput selectivity assays for small-molecule inhibitors of β-catenin/T-cell factor protein-protein interactions. ACS Med. Chem. Lett. 2013, 4, 306-311). Briefly, all of the tested compounds were prepared as 10 mM DMSO stocks. In the primary screen, the concentrations of the compounds and DMSO were set to 50 μM and 1% (v/v). Only the compounds which FP signal decreases were greater than 50% in the single-point β-catenin/Tcf assay were evaluated by counter screen. […] In the FP competitive inhibition assay, 10 nM human β-catenin and 2.5 nM of C-terminally fluorescein-labeled human Tcf4 were incubated in an assay buffer of 137 mM NaCl, 2.7 mM KCl, 10 mM Na2HPO4, 2 mM KH2PO4, 100 μg/mL of bovine γ-globulin, and 0.01% Triton-X100 for 15 min at 4° C. Bovine γ-globulin and Triton-X100 were included in the assay buffer to decrease the likelihood of compound acting by aggregate formation. Different concentrations of the tested compounds in the assay buffer were added to each test plate to make a final volume of 100 μL. Each assay plate was covered black and gently mixed on an orbital shaker at 4° C. for 1.5 h to reach equilibrium before the polarization values were read. The IC50 value was determined by nonlinear least-square analysis of GraphPad Prism 5.0. The Ki values were derived (Nikolovska-Coleska, Z.; Wang, R.; Fang, X.; Pan, H.; Tomita, Y.; Li, P.; Roller, P. P.; Krajewski, K.; Saito, N. G.; Stuckey, J. A.; Wang, S. Development and optimization of a binding assay for the XIAP BIR3 domain using fluorescence polarization. Anal. Biochem. 2004, 332, 261-273). […]

[1] = Assay 1, mean ± SD (n = 3), read-out: Ki ± SD, Assay 1
[2] = Assay 2, mean ± SD (n = 3), read-out: Ki ± SD, Assay 2
[3] = Assay 3, mean ± SD (n = 3), read-out: Ki ± SD, Assay 3
[4] = Assay 4, mean ± SD (n = 3), read-out: Ki ± SD, Assay 4

SMILES | Ki [1] | Ki [2] | Ki [3] | Ki [4]
O=C(O)CCn1cc(CCc2ccc(Cl)cc2)c2cc(C(=O)O)ccc21 [Compound 23, 1-(2-carboxyethyl)-3-(4-chlorophenethyl)-1H-indole-5-carboxylic acid] | 94 ± 9.6 µM | – | – | –
Cc1ccc(CCc2c(-c3cc[nH]c3)n(CCc3nn[nH]n3)c3ccc(C(=O)O)cc23)cc1 [Compound 81, 1-(2-(2H-tetrazol-5-yl)ethyl)-3-(4-methylphenethyl)-2-(1H-pyrrol-3-yl)-1H-indole-5-carboxylic acid] | 1.2 ± 0.28 µM | 3.2 ± 0.79 µM | – | –
O=C(O)c1ccc2c(c1)c(CCc1cccc(Cl)c1)cn2CCc1nn[nH]n1 [Compound 11, 1-(2-(2H-tetrazol-5-yl)ethyl)-3-(3-chlorophenethyl)-1H-indole-5-carboxylic acid] | 27 ± 4 µM | 12 ± 2.2 µM | – | –
O=C(O)c1ccc2c(c1)c(CCc1nccs1)cn2CCc1nn[nH]n1 [Compound 15, 1-(2-(2H-tetrazol-5-yl)ethyl)-3-(2-(thiazol-2-yl)ethyl)-1H-indole-5-carboxylic acid] | 29 ± 1.5 µM | > 51 µM | – | –
O=C(O)c1ccc2c(c1)c(CCc1ccccc1)cn2CCc1nn[nH]n1 [Compound 5, 1-(2-(2H-tetrazol-5-yl)ethyl)-3-phenethyl-1H-indole-5-carboxylic acid] | 62 ± 12 µM | – | – | –
Cc1cn(CCc2nn[nH]n2)c2ccccc12 [Compound 2, 1-(2-(2H-tetrazol-5-yl)ethyl)-3-methyl-1H-indole] | 348 ± 1.3 µM | 780 ± 100 µM | – | –
O=C(O)c1ccc2c(ccn2CCc2nn[nH]n2)c1 [Compound 4, 1-(2-(2H-tetrazol-5-yl)ethyl)-1H-indole-5-carboxylic acid] | 550 ± 56 µM | – | – | –
Cc1ccc(CCc2c(-c3cccs3)n(CCc3nn[nH]n3)c3ccc(C(=O)O)cc23)cc1 [Compound 77, 1-(2-(2H-tetrazol-5-yl)ethyl)-3-(4-methylphenethyl)-2-(thiophen-2-yl)-1H-indole-5-carboxylic acid] | 1.6 ± 0.11 µM | – | – | –
COc1ccc(CCc2cn(CCc3nn[nH]n3)c3ccc(C(=O)O)cc23)cc1 [Compound 8] | 78 ± 10 µM | – | – | –
O=C(O)c1ccc2c(c1)c(CCc1ccc(OC(F)(F)F)cc1)cn2CCc1nn[nH]n1 [Compound 10, 1-(2-(2H-tetrazol-5-yl)ethyl)-3-(4-(trifluoromethoxy)phenethyl)-1H-indole-5-carboxylic acid] | 22 ± 3.1 µM | – | – | –
Cc1ccc(CCc2cn(CCC(=O)O)c3ccc(C(=O)O)cc23)cc1 [Compound 24, 1-(2-carboxyethyl)-3-(4-methylphenethyl)-1H-indole-5-carboxylic acid] | 77 ± 4.5 µM | – | – | –
O=C(O)c1ccc2c(c1)c(CCc1ccc3c(c1)OCCO3)c(-c1ccsc1)n2CCc1nn[nH]n1 [Compound 87, 1-(2-(2H-tetrazol-5-yl)ethyl)-3-(2-(2,3-dihydrobenzo[b][1,4]dioxin-6-yl)ethyl)-2-(thiophen-3-yl)-1H-indole-5-carboxylic acid] | 3.4 ± 0.86 µM | 1.3 ± 0.066 µM | – | –
O=C(O)c1ccc2c(c1)c(CCc1ccc3ccccc3c1)cn2CCc1nn[nH]n1 [Compound 13, 1-(2-(2H-tetrazol-5-yl)ethyl)-3-(2-(naphthalen-2-yl)ethyl)-1H-indole-5-carboxylic acid] | 6.5 ± 1 µM | – | – | –

More lines, now with the values ahead:

Ki [1] | Ki [2] | Ki [3] | Ki [4] | SMILES
> 24 µM | > 22 µM | – | – | COc1ccc2sc(CCc3c(CCc4ccc(Cl)cc4)c4cc(C(=O)N[C@H]5CC[C@H](N)CC5)ccc4n3CCc3nn[nH]n3)nc2c1 [Compound 69, (1r,4r)-4-(1-(2-(2H-tetrazol-5-yl)ethyl)-3-(4-chlorophenethyl)-2-(2-(5-methoxybenzo[d]thiazol-2-yl)ethyl)-1H-indole-5-carboxamido)cyclohexan-1-aminium]
2 ± 0.4 µM | 4.1 ± 0.6 µM | 4.1 ± 1.2 µM | 1.6 ± 0.12 µM | COc1ccc2sc(CCc3c(CCc4ccc(Cl)cc4)c4cc(C(=O)O)ccc4n3CCc3nn[nH]n3)nc2c1 [Compound 31, 1-(2-(2H-tetrazol-5-yl)ethyl)-3-(4-chlorophenethyl)-2-(2-(5-methoxybenzo[d]thiazol-2-yl)ethyl)-1H-indole-5-carboxylic acid]
0.18 ± 0.034 µM | 0.29 ± 0.026 µM | 0.34 ± 0.023 µM | 0.45 ± 0.028 µM | COc1ccc2sc(C#Cc3c(CCc4ccc(Cl)cc4)c4cc(C(=O)O)ccc4n3CCc3nn[nH]n3)nc2c1 [Compound 71, 1-(2-(2H-tetrazol-5-yl)ethyl)-3-(4-chlorophenethyl)-2-((5-methoxybenzo[d]thiazol-2-yl)ethynyl)-1H-indole-5-carboxylic acid]
3.2 ± 0.28 µM | – | – | – | COc1ccc2sc(CCc3c(CCc4ccc(Cl)cc4)c4cc(C(=O)NCCOc5ccc(Cl)cc5)ccc4n3CCc3nn[nH]n3)nc2c1 [Compound 50, 1-(2-(2H-tetrazol-5-yl)ethyl)-3-(4-chlorophenethyl)-N-(2-(4-chlorophenoxy)ethyl)-2-(2-(5-methoxybenzo[d]thiazol-2-yl)ethyl)-1H-indole-5-carboxamide]
7.4 ± 1.4 µM | 10 ± 0.66 µM | 2.1 ± 0.26 µM | 2.1 ± 0.27 µM | COc1ccc2sc(CCc3c(CCc4ccc(Cl)cc4)c4cc(C(=O)Nc5ccc(Cl)cc5)ccc4n3CCc3nn[nH]n3)nc2c1 [Compound 47, 1-(2-(2H-tetrazol-5-yl)ethyl)-3-(4-chlorophenethyl)-N-(4-chlorophenyl)-2-(2-(5-methoxybenzo[d]thiazol-2-yl)ethyl)-1H-indole-5-carboxamide]
0.83 ± 0.048 µM | 3.7 ± 0.23 µM | – | – | COc1ccc2sc(CCc3c(CCc4ccc(Cl)cc4)c4cc(C(=O)NCc5ccsc5)ccc4n3CCc3nn[nH]n3)nc2c1 [Compound 59, 1-(2-(2H-tetrazol-5-yl)ethyl)-3-(4-chlorophenethyl)-2-(2-(5-methoxybenzo[d]thiazol-2-yl)ethyl)-N-(thiophen-3-ylmethyl)-1H-indole-5-carboxamide]
6.1 ± 1.5 µM | 7.5 ± 1.9 µM | 3.7 ± 1.3 µM | – | COCCOc1ccc2sc(CCc3c(CCc4ccc(Cl)cc4)c4cc(C(=O)O)ccc4n3CCc3nn[nH]n3)nc2c1 [Compound 32, 1-(2-(2H-tetrazol-5-yl)ethyl)-3-(4-chlorophenethyl)-2-(2-(5-(2-methoxyethoxy)benzo [d]thiazol-2-yl)ethyl)-1H-indole-5-carboxylic acid]
